Assay results as given in patent US12085575B2, “Compositions and methods for detecting proteinopathies” (BOARD OF SUPERVISORS OF LOUISIANA STATE UNIVERSITY AND …, priority 2011, dated 2024).

How the values were obtained:
Format in all cases: cell-based, human
[1] = tested on: Mfn2; experiment: Mfn2 modification and degradation in A-T/LV shRNA cells treated with mitochondrial depolarizing agents
Protocol: Immunoblotting Analysis of Mitochondrial Proteins—Mitochondria were isolated from A-T/LV control and ISG15 shRNA cells using the Miochondrial Isolation Kit (Thermo Scientific Company, 89874). The Dounce homogenization protocol described by the manufacturer was used to isolate mitochondria from cells. Mitochondrial pellets were resuspended in lysis buffer containing 50 mM Tris pH 7.5 and 4% (v/v) SDS. Samples were homogenized and boiled for 10 min. Lysates containing equal protein were then mixed with 6× Laemmli SDS sample buffer (3× final concentration). Samples were boiled again and mitochondrial proteins were analyzed by SDS-PAGE. Immunoblotting analyses using either anti-ISG15 (raised against human ISG15) (20), anti-ubiquitin (gift from Dr. Arthur Haas, at LSUHSC—New Orleans), or anti-mitofusin 2 (Abcam, ab88569) antibodies were carried out using the ECL Western procedure (Pierce, 34076) and the BioRad VersaDoc Imaging System (BioRad). Immunoblotting Analysis of HA Polyubiquitylated Proteins in Cells: Cells were transfected with HA-ubiquitin using the PolyFect transfection reagent (Qiagen, 301105). Twenty four hours after transfection, mitochondria were isolated as described above. Mitochondrial lysis, SDS-PAGE, and immunoblotting analysis to detect HA-ubiquitin conjugated proteins using anti-HA antibodies were carried out as described above. Immunoblotting Analysis of Mfn2 in Cells: Cells were lysed in lysis buffer containing 50 mM Tris-HCl, pH 7.5, 2% SDS, and protease inhibitor cocktail. Lysates were sonicated, boiled, and cleared by centrifugation. Lysates containing equal protein were then mixed with 6× Laemmli SDS sample buffer (3× final concentration). Samples were boiled again and proteins were separated by 15% SDS-PAGE. Immunoblotting analysis was carried out using anti-Mfn2 antibodies (Abcam) as described above. Intensity of the Mfn2 bands was quantitated using BioRad Quantity One software. Statistical analysis—Statistical analysis was carried out using GraphPad software.
Many outer mitochondrial membrane (OMM) proteins are ubiquitylated and degraded via the 26S proteasome prior to mitophagy in cells treated with the mitochondrial depolarizing agents (28,29). To test whether ISG15 inhibits polyubiquitylation of OMM proteins, we assessed the fate of Mfn2, an OMM protein and proteasome substrate, in A-T/LV-control and A-T/LV-ISG15-silenced cells treated with two different mitochondrial depolarizing agents, valinomycin and carbonylcyanide m-chlorophenylhydrazone (CCCP). Consistent with the literature reports (29,35,36), we observed a ladder of high molecular weight anti-Mfn2 cross-reactive bands above the 86 kDa Mfn2 protein band that is reminiscent of polyubiquitylation, in both ISG15-silenced and ISG15 overexpressing A-T cells (FIGS. 34 A and B, left panels). The endogenous level of these high molecular weight Mfn2 cross-reactive bands was remarkably higher in ISG15-silenced as compared to the ISG15-overexpressing A-T cells in the absence of any drugs (FIGS. 34A and B, first panels, compare lanes 1 and 4). […] In contrast, the level of these Mfn2 cross-reactive high molecular weight bands decreased under the same drug treatment conditions in ISG15-silenced A-T cells (FIGS. 34A and B, first panels, lanes 4-6, and the accompanying bar graph in the second panel for quantitation). […] The bar graphs in FIGS. 34A and B, third panels, show mean values of the ratio between free Mfn2 (86 kDa band) and actin proteins (±SEM) in CCCP-treated A-T/LV-control and ISG15 shRNA cells measured from eight independent experiments, and valinomycin-treated A-T/LV-control and ISG15 shRNA cells measured from three independent experiments respectively.

[2] = tested on: Mfn2; experiment: MFN2 modification and degradation in HEK293 cells treated with CCCP; conditions: HEK cells, CCCP 10 μM, 24 h
From the text: MFN2 is conjugated to SUMO-1/2/3 and ubiquitin, and is degraded in HEK293 cells treated with CCCP. We confirmed CCCP-induced MFN2-SUMO/ubiquitin modification and degradation in “normal” HEK293 cells. […] However, CCCP-mediated decrease in MFN2 was proteasome-dependent (FIG. 37D). Together, our results using A-T and HEK293 cells reveal that MFN2 is SUMOylated in response to CCCP treatment.

[3] = tested on: polyubiquitylated proteins; experiment: Camptothecin-induced degradation of polyubiquitylated proteins in A-T cells; conditions: CPT 10 μm, 24 hr
Protocol: To test the generality of this observation, the anticancer drug camptothecin (CPT), a genotoxic agent (37, 48-50), which is known to sensitize A-T cells (37), like UV, was used to induce degradation of polyubiquitylated proteins in A-T cells. In FIG. 8E, A-T cells were treated with camptothecin (CPT; 10 μm) in the presence or absence of Bafl (1 nm) for 24 hr. Ubiquitin conjugated proteins using anti-ubiquitin antibodies were detected as described herein for FIG. 8A. The experiment was repeated three times.

Structure (SMILES)	free MFN2 protein level ([1]; CCCP-treated ISG15 overexpressing A-T cells)	decrease in the free MFN2 level ([1]; ISG15-silenced A-T cells, CCCP 24 h, cell lysates and immunoprecipitates)	free Mfn2 protein level ([1]; ISG15 overexpressing A-T cells, 24 hr)	conjugation of SUMO-1, SUMO-2/3, and ubiquitin to MFN2 [2]	degradation of MFN2 [2]	degradation of endogenous polyubiquitylated proteins [3]
N#CC(C#N)=NNc1cccc(Cl)c1 [CCCP, carbonylcyanide m-chlorophenylhydrazone]	remained unaffected	20%	slightly increased	induces conjugation	20%	
CC[C@@]1(O)C(=O)OCc2c1cc1n(c2=O)Cc2cc3ccccc3nc2-1 [CPT, camptothecin]						induced degradation
